# Patent publication US7973056B2, “Triazole derivative or salt thereof” (Fujifilm Finechemicals Co., Ltd, priority 2008, dated 2011)
# Columns and labels:
# [1] = tested on: Aspergillus fumigatus ATCC 1028; assay: Antifungal activity test (in vitro), MIC; assay type: cell-based; conditions: ATCC1028
# Experimental: Minimum inhibitory concentration (MIC) of each of the compounds obtained in Examples 1 to 12 was measured for respective fungi at MOS Pharm Service, by the methods described in Antimicrobial Agents and Chemotherapy, vol. 3, pp. 40-48 (1973), Antimicrobial Agents and Chemotherapy, vol. 33, pp. 215-222 (1989) and Antimicrobial Agents and Chemotherapy, vol. 38, pp. 2362-2368 (1994). The measuring conditions are shown in the following. In this case, Voriconazol was used as a comparative compound.
# Aspergillus fumigatus ATCC 1028; Cultured at 28° C. for 2 days using potato dextrose broth, and this was used as a cell suspension.
# Each of the compounds of the invention was adjusted to a concentration of 1% by weight using dimethyl sulfoxide (DMSO) and a medium similar to the respective medium used in the above-mentioned fungal culture, having a final concentration of from 0.001 to 100 μg/ml, was prepared. Each of the inoculation cell suspensions prepared by the above-mentioned methods was inoculated onto this agar plate. […] In this connection, Voriconazol was used as the comparative compound C-1.
# [2] = tested on: Cryptococcus neoformans ATCC 24067; assay: Antifungal activity test (in vitro), MIC; assay type: cell-based; conditions: ATCC24067
# Experimental: (§1) Minimum inhibitory concentration (MIC) of each of the compounds obtained in Examples 1 to 12 was measured for respective fungi at MOS Pharm Service, by the methods described in Antimicrobial Agents and Chemotherapy, vol. 3, pp. 40-48 (1973), Antimicrobial Agents and Chemotherapy, vol. 33, pp. 215-222 (1989) and Antimicrobial Agents and Chemotherapy, vol. 38, pp. 2362-2368 (1994). The measuring conditions are shown in the following. In this case, Voriconazol was used as a comparative compound. Cryptococcus neoformans ATCC 24067, Pityrosporum ovale ATCC 38593; Cultured at 37° C. for 2 day using fluid Sabouraud medium, and this was used as a cell suspension. Each of the compounds of the invention was adjusted to a concentration of 1% by weight using dimethyl sulfoxide (DMSO) and a medium similar to the respective medium used in the above-mentioned fungal culture, having a final concentration of from 0.001 to 100 μg/ml, was prepared. Each of the inoculation cell suspensions prepared by the above-mentioned methods was inoculated onto this agar plate. […] In this connection, Voriconazol was used as the comparative compound C-1.
# [3] = tested on: Pityrosporum ovale ATCC 38593; assay: Antifungal activity test (in vitro), MIC; assay type: cell-based; conditions: Malassezia furfur, ATCC38593
# Experimental: as §1
# [4] = tested on: Microsporum canis ATCC 36299; assay: Antifungal activity test (in vitro), MIC; assay type: cell-based; conditions: ATCC36299
# Experimental: as §1, with “Microsporum canis” for “Cryptococcus neoformans”, “36299;” for “24067, Pityrosporum ovale ATCC 38593;”, “30°” for “37°”, “days” for “day”
# [5] = tested on: Trichophyton mentagrophytes ATCC 9533; assay: Antifungal activity test (in vitro), MIC; assay type: cell-based; conditions: ATCC9533
# Experimental: as §1, with “Trichophyton mentagrophytes” for “Cryptococcus neoformans”, “9533;” for “24067, Pityrosporum ovale ATCC 38593;”, “28°” for “37°”, “3 days” for “2 day”
# [6] = tested on: Candida albicans ATCC 10231; assay: Antifungal activity test (in vitro), MIC; assay type: cell-based; conditions: ATCC10231
# Experimental: as §1, with “Candida albicans” for “Cryptococcus neoformans”, “10231 and” for “24067, Pityrosporum ovale”, “44858;” for “38593;”, “20 hours” for “2 day”
# [7] = tested on: Candida albicans ATCC 44858; assay: Antifungal activity test (in vitro), MIC; assay type: cell-based; conditions: ATCC44858
# Experimental: as §1, with “Candida albicans” for “Cryptococcus neoformans”, “10231 and” for “24067, Pityrosporum ovale”, “44858;” for “38593;”, “20 hours” for “2 day”
# [8] = tested on: Trichophyton rubrum ATCC 10218; assay: Antifungal activity test (in vitro), MIC; assay type: cell-based; conditions: ATCC10218
# Experimental: as §1, with “Trichophyton rubrum” for “Cryptococcus neoformans”, “10218;” for “24067, Pityrosporum ovale ATCC 38593;”, “28°” for “37°”, “3 days” for “2 day”
# [9] = tested on: Aspergillus niger ATCC 8740; assay: Antifungal activity test (in vitro), MIC; assay type: cell-based; conditions: ATCC8740
# Experimental: as §1, with “Aspergillus niger” for “Cryptococcus neoformans”, “8740;” for “24067, Pityrosporum ovale ATCC 38593;”, “28°” for “37°”, “days” for “day”, “potato dextrose broth,” for “fluid Sabouraud medium,”
SMILES,MIC [1] [µg/mL],MIC [2] [µg/mL],MIC [3] [µg/mL],MIC [4] [µg/mL],MIC [5] [µg/mL],MIC [6] [µg/mL],MIC [7] [µg/mL],MIC [8] [µg/mL],MIC [9] [µg/mL],melting point [°C]
"C[C@@H](c1ncncc1F)[C@](O)(Cn1cncn1)c1ccc(F)cc1F [C-1, Voriconazol, reference compound]",0.3,0.1,0.3,3,0.1,0.3,0.3,0.3,0.1,
"C[C@@H](N1CC=C(c2ccc(F)cn2)CC1)[C@](O)(Cn1cncn1)c1ccc(F)cc1F [I-7, (2R,3R)-2-(2,4-difluorophenyl)-3-(5-fluoro-3′,6′-dihydro-2,4′-bipyridin-1′(2′H)-yl)-1-(1,2,4-triazol-1-yl)butan-2-ol]",10,0.3,0.01,10,1,0.1,,,,148 to 150
"Cc1ccc(C2=CCN([C@H](C)[C@](O)(Cn3cncn3)c3ccc(F)cc3F)CC2)nc1 [I-5, (2R,3R)-2-(2,4-difluorophenyl)-3-(5-methyl-3′,6′-dihydro-2,4′-bipyridin-1′(2′H)-yl)-1-(1,2,4-triazol-1-yl)butan-2-ol]",3,0.03,0.003,1,0.1,0.1,,,,115 to 117
"C[C@@H](N1CCC(c2ccc(F)cn2)CC1)[C@](O)(Cn1cncn1)c1ccc(F)cc1F [I-2, (2R,3R)-2-(2,4-difluorophenyl)-3-[4-(5-fluoropyridin-2-yl)piperidin-1-yl]-1-(1,2,4-triazol-1-yl)butan-2-ol]",10,0.3,0.01,10,1,0.1,,,,100 to 102
"Cc1ccc(C2=CCN([C@H](C)[C@](O)(Cn3cncn3)c3ccc(F)cc3F)CC2)nc1C [I-4, (2R,3R)-2-(2,4-difluorophenyl)-3-(5,6-dimethyl-3′,6′-dihydro-2,4′-bipyridin-1′(2′H)-yl)-1-(1,2,4-triazol-1-yl)butan-2-ol]",10,0.1,10,1,0.3,0.3,,,,85.5 to 87.5

# The remaining lines, values ahead:
MIC [1] [µg/mL],MIC [2] [µg/mL],MIC [3] [µg/mL],MIC [4] [µg/mL],MIC [5] [µg/mL],MIC [6] [µg/mL],MIC [7] [µg/mL],MIC [8] [µg/mL],MIC [9] [µg/mL],melting point [°C],SMILES
100,10,10,100,100,0.1,,,,75 to 78,"C[C@@H](N1CCCC(c2ccccn2)C1)[C@](O)(Cn1cncn1)c1ccc(F)cc1F (stereo partly drawn) [I-12, (2R,3R)-2-(2,4-difluorophenyl)-3-(3-pyridin-2-ylpiperidin-1-yl)-1-(1,2,4-triazol-1-yl)butan-2-ol]"
100,1,0.3,100,3,3,,,,89 to 92,"C[C@@H](N1CCC=C(c2ccccn2)C1)[C@](O)(Cn1cncn1)c1ccc(F)cc1F [I-10, (2R,3R)-2-(2,4-difluorophenyl)-3-(5′,6′-dihydro-2,3′-bipyridin-1′(2′H)-yl)-1-(1,2,4-triazol-1-yl)butan-2-ol]"
30,0.3,0.3,10,10,0.3,,,,178 to 180,"C[C@@H](Oc1cc(-c2ccccn2)ccn1)[C@](O)(Cn1cncn1)c1ccc(F)cc1F [I-9, (2R,3R)-3-(2,4′-bipyridin-2′-yloxy)-2-(2,4-difluorophenyl)-1-(1,2,4-triazol-1-yl)butan-2-ol]"
